row,melting point [°C],Structure (SMILES)
1,65 to 66,"O=C(CCCCCCSc1ccc2ccccc2c1)c1ncco1 [Example 104, 7-(2-naphthylsulfanyl)-1-(1,3-oxazol-2-yl)-1-heptanone]"
2,83 to 84,"CNC(=O)C(=O)CCCCCCSc1nc2ccccc2s1 [Example 184, 8-(1,3-benzothiazol-2-ylthio)-N-methyl-2-oxooctanamide]"
3,176 to 179,"O=C(NCCCCCC(=O)c1ncco1)c1cc2ccccc2[nH]1 [Example 111, N-(6-(1,3-oxazol-2-yl)-6-oxohexyl)-1H-indole-2-carboxamide]"
4,86 to 87,"CNC(=O)C(=O)CCCCCO/N=C/c1ccc(-c2ccccc2)cc1 [Example 198, 7-((((1E)-1,1′-biphenyl-4-ylmethylidene)amino)oxy)-N-methyl-2-oxoheptanamide]"
5,75 to 76,"O=C(CCCCCCS(=O)(=O)c1ccc2ccccc2c1)c1ncco1 [Example 105, 7-(2-naphthylsulfonyl)-1-(1,3-oxazol-2-yl)-1-heptanone]"
6,108 to 109,"CNC(=O)C(=O)CCCCCCS(=O)(=O)c1ccc2ccccc2c1 [Example 107, N-methyl-8-(2-naphthylsulfonyl)-2-oxooctanamide]"
7,55 to 56,"O=C(CCCCCCS(=O)(=O)c1ccccc1)c1ncco1 [Example 103, 1-(1,3-oxazol-2-yl)-7-(phenylsulfonyl)-1-heptanone]"
8,70 to 72,"CNC(=O)C(=O)CCCCCCc1csc(-c2ccccc2)n1 [Example 196, N-methyl-2-oxo-8-(2-phenyl-1,3-thiazol-4-yl)octanamide]"
9,110 to 111,"CC(=O)C(=O)CCCCCCOc1ccc(-c2ccccc2)cc1 [Example 113, 9-((1,1′-biphenyl)-4-yloxy)-2,3-nonanedione]"
10,39 to 40,"O=C(CCCCCCSc1ccccc1)c1ncco1 [Example 102, 1-(1,3-oxazol-2-yl)-7-(phenylsulfanyl)-1-heptanone]"
11,90 to 92,"CNC(=O)C(=O)CCCCCCc1cnc(-c2ccc(Br)cc2)o1 [Example 217, 8-(2-(4-bromophenyl)-1,3-oxazol-5-yl)-N-methyl-2-oxooctanamide]"
12,83 to 88,"O=C(NCCCCCC(=O)C(F)(F)F)OCC1c2ccccc2-c2ccccc21 [Example 89, 9H-fluoren-9-ylmethyl 7,7,7-trifluoro-6-oxoheptylcarbamate]"
13,78 to 80,"CNC(=O)C(=O)CCCCCCc1cnc(-c2ccccc2)o1 [Example 199, N-methyl-2-oxo-8-(2-phenyl-1,3-oxazol-5-yl)octanamide]"
14,107 to 108,"CNC(=O)C(=O)CCCCCCSc1nc(-c2ccccc2)cs1 [Example 183, N-methyl-2-oxo-8-((4-phenyl-1,3-thiazol-2-yl)thio)octanamide]"
15,77 to 81,"CNC(=O)C(=O)CCCCCCc1csc(-c2ccc(Cl)cc2)n1 [Example 218, 8-(2-(4-chlorophenyl)-1,3-thiazol-4-yl)-N-methyl-2-oxooctanamide]"
16,94 to 95,"CNC(=O)C(=O)CCCCCCSc1ccc2ccccc2c1 [Example 106, N-methyl-8-(2-naphthylsulfanyl)-2-oxooctanamide]"
17,131 to 132,"CNC(=O)C(=O)CCCCCCSc1ccc(-c2ccccc2)cc1 [Example 108, 8-((1,1′-biphenyl)-4-ylsulfanyl)-N-methyl-2-oxooctanamide]"
18,153 to 156,"O=C(NCCCCCCC(=O)c1ncco1)c1cc2ccccc2[nH]1 [Example 110, N-(7-(1,3-oxazol-2-yl)-7-oxoheptyl)-1H-indole-2-carboxamide]"
